Results reported in US11459330B2, “Substituted bicyclic heterocyclic compounds as PRMT5 inhibitors” (LUPIN LIMITED, priority 2017, dated 2022).

How the values were obtained:
[1] = system: PANC-1 cells; assay: Anti-cancer assay (Panc-1), cell viability CellTiterGlo; type: cell-based; details: Homo sapiens, PANC-1, 168 h, 7 days, activity range, lower bound in pM, upper bound in nM
Procedure: Anticancer Activity Assay
Z-138 cells were seeded at a density of 2000-3000 cells per well in culture media (IMDM+10% FBS). PANC-1 (ATCC, CRL-1469™) and MIA PaCa-2 (ATCC, CRL-1420™) cells were seeded at a density of 200-300 cells per well in culture media (DMEM+10% FBS). Cells were seeded in opaque, flat bottomed tissue culture grade 96-well plates and Z-138 cells (suspension) were seeded and treated on the same day with various concentrations of test compounds. PANC-1 and MIA PaCa-2 cells, being adherent, were kept for overnight settlement at standard cell culture conditions (37° C., 5% CO2). On the following day, cells were treated with various concentrations of test compounds. Cells were treated with test compounds for a period of 96 h, 7 days and 10 days, for Z-138 cells, PANC-1 cells and MIA PaCa-2 cells, respectively. Cell viability was assessed using CellTiterGlo™ (Promega, USA) as per manufacturer's instructions. Relative Light Units (RLU) were read in Synergy™ 2 reader (Biotek, USA). The assay measures cellular ATP as an indicator of cell viability. RLU is proportional to the number of viable cells in the respective well.
% inhibition of cell viability was calculated relative to the vehicle control samples containing media with 0.1% DMSO alone as per the formula below. (Avg. of Untreated Control−Avg. of Test)×100 Avg. of Untreated Control
The IC50 values of individual compounds were calculated with Non Linear Regression Analysis using Graph Pad Prism (Graph Pad software, Inc, USA).
Anti-Cancer Assay (Panc-1)

[2] = target: PRMT5:MEP50 (Homo sapiens, UniProt O14744); assay: PRMT5 biochemical HTRF assay (Biochemical Assay Protocol 1 / 2); details: biotinylated H4R3 substrate, 1 μM SAM, protocol 1 or 2 not given, activity range 300 pM to 950 pM, read-out: IC50 (PRMT5 inhibition), activity range
Procedure: Biochemical Assay Protocol 1
(§1) Inhibitory effect of compounds on PRMT5 was assessed using HTRF detection technology in biochemical assay. Biotinylated H4R3 (residues 1-21) was used as a substrate. Compounds were pre-incubated with 15-25 ng PRMT5:MEP50 per well of a 384-well plate for 30 min at room temperature in the assay buffer containing 20 mM Bicine, pH 7.6, 25 mM NaCl, 2 mM DTT, 0.01% Chicken albumin and 0.01% Tween-20. Reaction was initiated by adding 1 μM of SAM and 50 nM biotinylated H4R3. Total assay volume was 15 μL. Reaction was continued for 120 min at room temperature. Then detection solution containing Streptavidin-Eu cryptate, anti-rabbit IgG-XL-665, Histone H4R3 Dimethyl Symmetric (H4R3me2s) Polyclonal Antibody, all prepared in HTRF detection buffer was added and further incubated for 30 min at room temperature. HTRF signal was recorded in PHERAStar microplate reader. Ratio of signal obtained at 665 nm and 620 nm was used to compute the percent inhibition of compound as follows % Inhibition=100−((Test Ratio−Negative control Ratio)/(Positive control Ratio−Negative control Ratio)*100) where Positive control=PRMT5+SAM+H4R3 Negative control=PRMT5+H4R3 Biochemical Assay Protocol 2
as §1, with “2.5” for “15-25”, “4 h” for “120 min”, “control=PRMT5+H4R3” for “control=PRMT5+H4R3 Biochemical Assay Protocol 2”

[3] = system: Z-138 xenograft; assay: In vivo efficacy, Z-138 xenograft mouse model; design: species or system female NOD.CB17-Prkdc<scid>/J mice; details: mice, oral twice a day; for % of tumor growth inhibition: 1 mg/kg dose, after 38 days
Procedure: In Vivo Efficacy Experiments Tumor xenograft for mantle cell lymphoma was established by injection of cells into the right flank of female NOD.CB17-Prkdc/J mice with an age between 7-11 weeks purchased from The Jackson Laboratory, USA. All animal study proposals were reviewed and approved by the Institutional Animal Ethics Committee (IAEC) prior to initiation of experimentation. Z-138 Xenograft For Z-138 xenograft mouse model, Z-138 cells (ATCC® CRL-3001™) were grown in IMDM medium supplemented with 10% FBS. Cells were incubated under standard conditions at 37° C. and 5% CO2. For generating tumors, Z-138 cells in IMDM medium were mixed with Matrigel (Corning® Matrigel® Basement Membrane Matrix) in a ratio of 1:1. 10×10^6 cells) in a volume of 200 μL were injected subcutaneously in each mouse to establish tumors. Mice were randomized into treatment groups of 8-10 mice, once tumors reached an average volume between 100 to 120 mm^3. Treatment was initiated on day of randomization and continued until end of the study. The Vehicle and test compound treatment groups were administered respective treatments orally, using gavage tubing, at an application volume of 10 mL/kg per mouse twice a day. Mice were housed in individually ventilated cages (IVC) at room temperature of 22+3° C., humidity 50+20% and 12/12 h light/dark cycle. All the experimental activities were carried-out inside the biosafety cabinets to ensure sterility.
Tumor size was measured with Digimatic Vernier caliper (Mitutoyo, Japan) when the tumors became palpable. Tumor volume (T. V.) is calculated by using the formula: Tumor volume (mm3)=(L×W2)/2 Where, L: Length of tumor, W: Width of tumor in millimeter Percent tumor growth inhibition (% TGI) is calculated using the formula: % TGI=[1−(Tf−Ti)/(Cf−Ci)]×100 Where, Tf and Ti, are the final and initial tumor volumes (test compound), and Cf and Ci are the final and initial mean tumor volumes (vehicle group), respectively. Percent tumor regression is calculated as: % TR:(Ti−Tf)/(Ti)×100 Where, Tf and Ti, are the final and initial tumor volumes, respectively.

Sequence of PRMT5:MEP50 (O14744 whole entry): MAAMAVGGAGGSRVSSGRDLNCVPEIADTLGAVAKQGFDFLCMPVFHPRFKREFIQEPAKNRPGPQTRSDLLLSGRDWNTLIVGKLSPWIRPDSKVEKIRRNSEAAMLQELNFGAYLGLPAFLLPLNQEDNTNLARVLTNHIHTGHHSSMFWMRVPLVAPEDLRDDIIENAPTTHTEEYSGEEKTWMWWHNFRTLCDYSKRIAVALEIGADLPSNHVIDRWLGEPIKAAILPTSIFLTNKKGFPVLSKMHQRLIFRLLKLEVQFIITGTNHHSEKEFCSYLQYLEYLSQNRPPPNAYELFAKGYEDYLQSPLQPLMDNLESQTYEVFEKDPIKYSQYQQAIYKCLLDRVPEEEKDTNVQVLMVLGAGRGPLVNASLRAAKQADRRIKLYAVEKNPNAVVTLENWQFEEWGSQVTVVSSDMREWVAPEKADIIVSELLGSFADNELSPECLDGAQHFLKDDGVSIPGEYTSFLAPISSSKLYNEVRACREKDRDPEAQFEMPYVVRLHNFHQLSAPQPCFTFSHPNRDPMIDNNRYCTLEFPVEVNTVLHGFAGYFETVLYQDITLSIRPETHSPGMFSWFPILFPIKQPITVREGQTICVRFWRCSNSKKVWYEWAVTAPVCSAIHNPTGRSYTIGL
Sequence of PRMT5:MEP50 (Q9BQA1 whole entry partner): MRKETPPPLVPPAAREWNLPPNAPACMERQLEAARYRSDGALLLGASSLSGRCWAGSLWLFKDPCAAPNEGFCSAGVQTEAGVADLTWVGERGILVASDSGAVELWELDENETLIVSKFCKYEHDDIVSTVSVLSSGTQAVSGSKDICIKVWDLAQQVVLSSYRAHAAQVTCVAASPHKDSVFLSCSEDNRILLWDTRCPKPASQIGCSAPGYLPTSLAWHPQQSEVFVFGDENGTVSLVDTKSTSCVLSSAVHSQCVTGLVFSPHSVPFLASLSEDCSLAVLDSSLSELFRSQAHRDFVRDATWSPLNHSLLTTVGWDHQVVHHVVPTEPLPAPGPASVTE

IC50 [1] [pM] | IC50 [2] [nM] | Compound | % of tumor growth inhibition [3] [%] | tumor growth inhibition ([3]; 5 mg/kg dose) [%] | tumor regression ([3]; 5 mg/kg dose) [%]
300 to 20000 | 0.3 to 0.95 | CC(Cc1cc(F)c2cc(Cl)c(N)nc2c1)C1=C[C@@H](n2ccc3c(N)ncnc32)[C@H](O)[C@@H]1O (single isomer, unassigned) [Compound-33b] | 100 | – | –
300 to 20000 | 0.3 to 0.95 | Cc1ncnc2c1ccn2[C@@H]1C=C(CCc2cc(F)c3cc(Cl)c(N)nc3c2)[C@@H](O)[C@H]1O [Compound-13, (1S,2R,5R)-3-(2-(2-amino-3-chloro-5-fluoroquinolin-7-yl)ethyl)-5-(4-methyl-7H-pyrrolo[2,3-d]pyrimidin-7-yl)cyclopent-3-ene-1,2-diol] | 100 | – | –
300 to 20000 | 0.3 to 0.95 | Nc1nc2cc(CCC3=C[C@@H](n4ccc5c(N)ncnc54)[C@H](O)[C@@H]3O)cc(F)c2cc1Cl [Compound-24, (1S,2R,5R)-3-(2-(2-amino-3-chloro-5-fluoroquinolin-7-yl)ethyl)-5-(4-amino-7H-pyrrolo[2,3-d]pyrimidin-7-yl)cyclopent-3-ene-1,2-diol] | 100 | – | –
300 to 20000 | 0.3 to 0.95 | Nc1nc2cc(CC[C@@]34C[C@@H]3[C@@H](n3ccc5c(N)ncnc53)[C@H](O)[C@@H]4O)cc(F)c2cc1Cl [Compound-48, (1R,2R,3S,4R,5S)-1-(2-(2-Amino-3-chloro-5-fluoroquinolin-7-yl)ethyl)-4-(4-amino-7H-pyrrolo[2,3-d]pyrimidin-7-yl)bicyclo[3.1.0]hexane-2,3-diol] | – | 100 | 63
